Values of other authors in US7329690B2, “Effectiveness of invertebrate pest-control agents” (FMC Corporation, priority 2001, dated 2008).

O=[N+]([O-])NC1=NCCN1Cc1ccc(Cl)nc1 [imidacloprid]
water solubility: 610 ppm
